The values that follow come from US8772446B2, “Bifunctional chelating agents” (Nordion (Canada) Inc., priority 2010, dated 2014).

Series [1] addresses T1, human apo-transferrin (Homo sapiens, UniProt P02787). As to conditions: 40 µM.
Experimental: (§1) FIG. 13 illustrates stacked labelling traces of ^67Ga(dedpa)^+ of 2 h stability experiment against apo-transferrin (gradient: A: NaOAc buffer, pH 4.5, B: MeOH. 0-100% B linear gradient 20 min).
Series [2] has as its target T1, human apo-transferrin. Kind of series: ^67Ga complex stability: 2-h competition with excess human apo-transferrin, HPLC. As to conditions: for Stability in competition with excess human apo-transferrin, 10 min / Stability in competition with excess human apo-transferrin, 1 h / Stability in competition with excess human apo-transferrin, 2 h: ^67Ga complex, 37° C.
Experimental: as §1
Series [3] is described as follows: Solution thermodynamics: formation constants (log KML) and pM of Ga(III) complexes, potentiometric titration. It counts as physicochemical. The conditions noted are these: Calculated for 10 μM total ligand and 1 μM total metal at pH 7.4 and 25° C. How it is done:
A more relevant indicator of the extent to which a metal complex is formed in solution is given by pM (−log free M) which considers the influence of ligand basicity and chelate hydrolysis.
Carbonate-free solutions of the titrant, NaOH, were prepared by dilution of 50% solution (Acros Organics) with freshly boiled MQ water under a stream of purified nitrogen gas. The solution was standardized with potassium acid phthalate and the extent of carbonate accumulation was periodically checked by titration with a standard hydrochloric acid solution and determination of the corresponding Gran titration plot.^47 Gallium ion solutions were prepared by dilution of the appropriate atomic absorption (AA) standard. The exact amount of acid present in the gallium standard was determined by titration of an equimolar solution of Ga and Na2H2EDTA. The amount of acid present was determined by Gran's method.^47
Data were collected in triplicate using PC Control (Version 6.0.91, Metrohm). The titration apparatus consisted of a 10 mL water jacketed glass vessel maintained at 25.0±0.1° C. (Julabo waterbath). Prior to and during the course of the titration, a blanket of nitrogen, passed through 10% NaOH to exclude any CO2, was maintained over the sample solution. The ionic strength was maintained at 0.16 M using NaCl. Prior to each potentiometric equilibrium study, the electrode was calibrated using standard HCl solutions. Calibration data were analysed by standard computer treatment provided within the program MacCalib to obtain the calibration parameters E0 and pKw.
As the degree of formation of Ga(III) complexes at low pH (<2) was too high for the determination of stability constants by use of direct potentiometry, the ligand-ligand competition method using Na2H2EDTA was also performed.

For series [4] the following is noted: Ga(III) complex, cited from earlier work; for log KML: literature value.
A short description of series [5]: log P. Format: physicochemical.
In series [6] the target is T1, human apo-transferrin. The series can be described thus: ^111In-chelate stability: binding competition with human apo-transferrin at ambient temperature, PD-10 columns. It counts as in vitro ADME. More on the design: Human serum apo-transferrin was purchased from Sigma-Aldrich; purchased Sigma-Aldrich; host or cells: human serum. As to the method: Human apo-transferrin (Aldrich) was suspended in 10 mM NaHCO3 buffer at pH 6.9. Labeling solutions were prepared with chelators and ^111In in 10 mM NaHCO3 buffer at pH 5.5, and allowed to sit for 20-30 minutes. Quantitative formation of ^111In-chelate complexes was confirmed by HPLC (same methods as in Example 2). ^111In(DOTA) was formed using a microwave reactor (Biotage) at 80° C. for 10 minutes to ensure quantitative labeling. Competition experiments for all 8 chelators studied (Table 3) were performed with preformed ^111In-chelate complexes at a concentration of 36.5 mM, and with human apo-transferrin at a concentration of ˜10 mM. Samples were left to sit in sterile scintillation vials for 1 hour and 24 hours at ambient temperature. Chelate stability was determined using size-exclusion ‘desalting’ columns (GE Healthcare PD-10 pre-packed columns, Sephadex G-25 M). All compounds smaller than ˜5000 Daltons were retained by the PD-10 columns, and all transferrin was eluted. PD-10 columns were conditioned by discarding the contained bactericidal solution and eluting 20 mL of phosphate buffered saline (PBS, purchased from BioWhittaker). For analysis, the competition experiment solutions were diluted to 2.5 mL with PBS, measured with a Capintec scintillation counter, loaded onto PD-10 columns, and allowed to elute into a waste container fully. An additional 3.5 mL of PBS was then loaded onto the columns and collected into a sterile scintillation vial. PD-10 columns were discarded after a single use. The vial containing the eluent was then measured with a Capintec scintillation counter to determine the amount of ^111In bound to transferrin. The difference in radioactivity between the competition experiment solutions and the eluent from the PD-10 columns was used to determine the percent ^111In bound to transferrin, and therefore the percent stability of the complexes.

Like-named read-outs stand apart in the source and are kept apart here.

T1 sequence (P02787 20-698): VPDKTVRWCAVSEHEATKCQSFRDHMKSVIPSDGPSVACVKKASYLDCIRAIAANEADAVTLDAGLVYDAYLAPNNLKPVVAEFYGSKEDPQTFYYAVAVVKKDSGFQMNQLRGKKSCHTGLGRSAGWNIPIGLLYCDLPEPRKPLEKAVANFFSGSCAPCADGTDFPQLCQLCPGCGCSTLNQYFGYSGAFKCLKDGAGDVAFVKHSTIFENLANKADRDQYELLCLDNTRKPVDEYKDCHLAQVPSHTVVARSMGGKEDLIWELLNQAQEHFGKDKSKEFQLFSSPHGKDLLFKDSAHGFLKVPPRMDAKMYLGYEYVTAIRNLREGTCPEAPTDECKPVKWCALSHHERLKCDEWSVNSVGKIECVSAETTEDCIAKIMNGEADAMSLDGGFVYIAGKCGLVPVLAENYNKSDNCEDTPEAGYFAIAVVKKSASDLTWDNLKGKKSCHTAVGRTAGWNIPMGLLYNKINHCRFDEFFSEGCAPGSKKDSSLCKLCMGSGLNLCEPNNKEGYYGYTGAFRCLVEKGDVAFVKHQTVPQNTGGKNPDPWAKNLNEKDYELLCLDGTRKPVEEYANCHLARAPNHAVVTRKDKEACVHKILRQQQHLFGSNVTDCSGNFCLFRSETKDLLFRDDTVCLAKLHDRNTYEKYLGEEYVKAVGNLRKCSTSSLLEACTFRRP

With `O=C(O)c1cccc(CN(CCN(Cc2ccc([N+](=O)[O-])cc2)Cc2cccc(C(=O)O)n2)Cc2ccc([N+](=O)[O-])cc2)n1` [Compound 66], the “Stability in competition with excess human apo-transferrin, 10 min” value (“Stability in competition … 10 min” below) in series [1] (10 min) is listed as 88%. Moreover, the “Stability in competition with excess human apo-transferrin, 1 h” value (“Stability in competition … 1 h” for short) in series [1] (1 h) came to 69%. Besides, the “Stability in competition with excess human apo-transferrin, 2 h” value (shortened to “Stability in competition … 2 h”) in series [1] (2 h) was 51%.

On to `O=C(O)c1cccc(CNCCNCc2cccc(C(=O)O)n2)n1` [Compound H2dedpa], for which the “Extraction of gallium from transferrin (in words)” value in series [2] (challenge experiment) was “capable of extracting gallium from transferrin”. In series [3], the pM was 27.4.

For `O=C(O)CN1CCN(CC(=O)O)CCN(CC(=O)O)CCN(CC(=O)O)CC1` [DOTA, 1,4,7,10-tetraazacyclododecane-1,4,7,10-tetraacetic acid, reference compound], the “log KML” value in series [4] is 21.33. Besides, the pM in series [3] was 18.5.

For `O=C(O)CN(CCN(CC(=O)O)CC(=O)O)CC(=O)O` [EDTA, reference compound], the “log KML” value in series [4] was 21.7. In addition, the pM in series [3] was 18.3.

`COc1cc(CN(CCN(Cc2cc(OC)cc(OC)c2)Cc2cccc(C(=O)[O-])n2)Cc2cccc(C(=O)[O-])n2)cc(OC)c1.O=[N+]([O-])[O-].[Ga+3]` [Ga(88)NO3]: in series [2], the “Stability in competition … 10 min” value is 76%; the “Stability in competition … 1 h” value is 59%; the “Stability in competition … 2 h” value was determined as 52%. The “log P” value in series [5] is −0.32.

Regarding `COc1cc(OC)c(CN(CCN(Cc2cccc(C(=O)[O-])n2)Cc2c(OC)cc(OC)cc2OC)Cc2cccc(C(=O)[O-])n2)c(OC)c1.O=[N+]([O-])[O-].[Ga+3]` [Ga(91a)NO3], in series [2], the “Stability in competition … 10 min” value was 86%; the “Stability in competition … 1 h” value was 85%; the “Stability in competition … 2 h” value was determined as 82%. Besides, in series [5], the “log P” value is reported as −0.03.

`COc1cc(CN(CCN(Cc2cc(OC)cc(C(=O)[O-])n2)Cc2c(OC)cc(OC)cc2OC)Cc2c(OC)cc(OC)cc2OC)nc(C(=O)[O-])c1.O=[N+]([O-])[O-].[Ga+3]` [Ga(91b)NO3]: in series [2], the “Stability in competition … 10 min” value is 97%; the “Stability in competition … 1 h” value turned out to be 96%; the “Stability in competition … 2 h” value turned out to be 96%. Also, in series [5], the “log P” value is 0.66.

On to `CCOc1cc(OCC)c(CN(CCN(Cc2cccc(C(=O)[O-])n2)Cc2c(OCC)cc(OCC)cc2OCC)Cc2cccc(C(=O)[O-])n2)c(OCC)c1.O=[N+]([O-])[O-].[Ga+3]` [Ga(99a)NO3], for which, in series [2], the “Stability in competition … 10 min” value is on record as 95%; the “Stability in competition … 1 h” value came to 92%; the “Stability in competition … 2 h” value is reported as 91%.

For the compound `CCOc1cc(OCC)c(CN(CCN(Cc2cc(OC)cc(C(=O)[O-])n2)Cc2c(OCC)cc(OCC)cc2OCC)Cc2cc(OC)cc(C(=O)[O-])n2)c(OCC)c1.O=[N+]([O-])[O-].[Ga+3]` [Ga(99b)NO3], in series [2], the “Stability in competition … 10 min” value was 94%; the “Stability in competition … 1 h” value is given as 93%; the “Stability in competition … 2 h” value stood at 93%. Also, in series [5], the log partition coefficient (log P) amounted to 1.16.

As for `O=C(O)CN1CCN(CC(=O)O)CCN(CC(=O)O)CC1` [NOTA, 1,4,7-triazacyclononane-1,4,7-triacetic acid, reference compound], the “log KML” value in series [4] is recorded as 30.98. Further, the pM in series [3] is reported as 27.9.

As to `O=C(O)c1cccc(CNCCNCc2cccc(C(=O)O)n2)n1` [^111In(1), metal not drawn], in series [6], the “% ^111In-chelate stability at 1 hour” value is 98% and the “% ^111In-chelate stability, 24 hour stability” value was 43%.

Take `O=C(O)CN(CCN(CC(=O)O)Cc1cccc(C(=O)O)n1)Cc1cccc(C(=O)O)n1` [^111In(2), metal not drawn]: in series [6], the “% ^111In-chelate stability at 1 hour” value came out at 90% and the “% ^111In-chelate stability, 24 hour stability” value came to 91%.

As to `O=C(O)c1cccc(CNCCCNCc2cccc(C(=O)O)n2)n1` [^111In(3), metal not drawn], in series [6], the “% ^111In-chelate stability at 1 hour” value is listed as 91% and the “% ^111In-chelate stability, 24 hour stability” value stood at 85%.

On to `O=C(O)CN(CCCN(CC(=O)O)Cc1cccc(C(=O)O)n1)Cc1cccc(C(=O)O)n1` [^111In(4), metal not drawn], for which, in series [6], the “% ^111In-chelate stability at 1 hour” value was 93% and the “% ^111In-chelate stability, 24 hour stability” value came out at 91%.

In the case of `O=C(O)c1cccc(CNCCN(CCNCc2cccc(C(=O)O)n2)Cc2cccc(C(=O)O)n2)n1` [^111In(5), metal not drawn], the “% ^111In-chelate stability, 24 hour stability” value in series [6] is recorded as 88%.

`O=C(O)CN(CCN(CC(=O)O)Cc1cccc(C(=O)O)n1)CCN(CC(=O)O)Cc1cccc(C(=O)O)n1` [^111In(6), metal not drawn]: in series [6], the “% ^111In-chelate stability at 1 hour” value worked out at 89% and the “% ^111In-chelate stability, 24 hour stability” value was 91%.

With `O=C([O-])CN1CCN(CC(=O)[O-])CCN(CC(=O)[O-])CCN(CC(=O)[O-])CC1.[111In+3]` [^111In(DOTA), reference compound], the “% ^111In-chelate stability, 24 hour stability” value in series [6] turned out to be 81%.

As to `O=C([O-])CN(CCN(CC(=O)[O-])CC(=O)[O-])CCN(CC(=O)[O-])CC(=O)[O-].[111In+3]` [^111In(DTPA), reference compound], in series [6], the “% ^111In-chelate stability at 1 hour” value is on record as 86% and the “% ^111In-chelate stability, 24 hour stability” value worked out at 88%.

“Transferrin: iron transport protein found in high concentrations in the blood that has an affinity for Ga”: in series [4] (conditional constant from reference), the “log KML (conditional constant)” value is reported as 20.3. In series [3], the pM was 21.3.

The term log P denotes the decadic logarithm of the partition coefficient of the neutral form, usually between octanol and water. Low readings indicate a more hydrophilic compound, high ones a more lipophilic compound.
